Laboratory results as given in US7973219B2, “Method for producing transgenic plants resistant to weed control compounds which disrupt the porphyrin pathways of plants” (Sumitomo Chemical Company, Limited, priority 1998, dated 2011).

Columns and labels:
Format in all cases: cell-based, Escherichia coli
[1] = tested on: E. coli BT3/pACYCSP+pTCHLH1 strain; experiment: Growth of E. coli BT3/pACYCSP+pTCHLH1 (variant tobacco chelatase subunit) with herbicidal compound; conditions: 18 hours culture, Table 6
Excerpt: (§1) According to the description of Gibson, L. C. D. et al., Proc. Natl. Acad. Sci. USA, 92; p 1941 (1995), the DNA fragment containing bchH gene prepared in Example 1 was digested with the restriction enzymes NdeI and BglII. The resultant DNA fragment was inserted between NdeI restriction site and BamHI restriction site of expression vector pET11a (manufactured by Stratagene) to obtain plasmid pETBCH (FIG. 1). This plasmid pETBCH was introduced into E. coli BL21(DE3) strain competent cells (manufactured by Stratagene) according to the manual attached to the competent cells to obtain E. coli BL21(DE3)/pETBCH strain. The strain was inoculated into 1.5 ml LB liquid culture medium (1% tryptone, 0.5% yeast extract, 0.5% NaCl) containing 100 μg/ml ampicillin in a tube (14×10 mm), and the tube was covered with aluminum foil (hereinafter referred to as dark conditions), cultured with shaking at 37° C. under light of fluorescent lamp (about 8000 lux). When the absorbance at 600 nm of the liquid culture medium became about 0.6, isopropyl β-D-thiogalactopyranoside (IPTG) was added to the liquid culture medium so that the final concentration was 0.4 mM, and the culture was continued for about additional 20 hours. […] In contrast to this, when E. coli BL21(DE3)/pETBCH strain was cultured according to the same manner (with IPTG) except that the tube was not covered with aluminum foil (hereinafter referred to as light conditions), E. coli grew and turned red as above.
The plasmid pTCHLH1 and pCR2.1 prepared in Example 7 were introduced into E. coli BT3/pACYCSP strain prepared in Example 3, respectively according to the method described in Hanahan, D. J., Mol. Biol., 166; p 557 (1983). E. coli BT3/pACYCSP+pTCHLH1 strain bearing plasmids pACYCSP and pTCHLH1, and E. coli BT3/pACYCSP+pCR2.1 strain bearing plasmids pACYCSP and pCR2.1 were obtained by culturing the above strains in YPT medium containing 100 μg/ml ampicillin, 15 μg/ml chloramphenicol and 50 μg/ml kanamycin, respectively.
(§2) These E. coli strains were inoculated into YPT medium containing 10 or 1 ppm of the PPO inhibitory-type herbicidal compound represented by Structure 8, 100 μg/ml ampicillin, 15 μg/ml chloramphenicol, 50 μg/ml kanamycin, 10 μg/ml hemin and 50 μg/ml aminolevulinic acid, cultured under dark conditions or light conditions according to the same manner as in Example 2. Then, 18 hours after initiation of culture, the absorbance of the liquid culture medium was measured at 600 nm. By taking the absorbance of the medium without the herbicidal compound as 1, the relative value of the absorbance of the medium containing the herbicidal compound was calculated.

[2] = tested on: E. coli BT3/pACYCSP+pTVCRP strain; experiment: Growth of E. coli BT3/pACYCSP+pTVCRP (variant Chlamydomonas reinhardtii PPO) with herbicidal compound; conditions: 18 hours culture, Table 9
Excerpt: as §1
Plasmids pTVCRP and pTV118N prepared in Example 16 were introduced into E. coli BT3/pACYCSP strain prepared in Example 3 respectively according to the method described in Hanahan, D. J., Mol. Biol., 166; p 557 (1983). E. coli BT3/pACYCSP+pTVCRP strain bearing plasmids pACYCSP and pTVCRP, and E. coli BT3/pACYCSP+pTV118N strain bearing plasmids pACYCSP and pTV118N were obtained by culturing the above strains in YPT medium containing 100 μg/ml ampicillin, 15 μg/ml chloramphenicol and 10 μg/ml kanamycin.
These E. coli strains were inoculated into YPT medium containing 10 or 1 ppm of the PPO inhibitory-type herbicidal compound represented by Structure 8, 100 μg/ml ampicillin. 15 μg/ml chloramphenicol, 10 μg/ml kanamycin, 10 μg/ml hemin and 50 μg/ml aminolevulinic acid, cultured under dark conditions or light conditions in the same manner as in Example 2. Then, 18 hours after initiation of culture, the absorbance of liquid culture medium was measured at 600 nm. By taking the absorbance of the medium containing no herbicidal compound as 1, the relative value of the absorbance of the medium containing the herbicidal compound was calculated.

[3] = tested on: E. coli BT3/pACYCSP+pTVHVF1 strain; experiment: Growth of E. coli BT3/pACYCSP+pTVHVF1 (variant barley ferrochelatase) with herbicidal compound; conditions: 18 hours culture, Table 11
Excerpt: as §1
A plasmid bearing barley ferrochelatase gene was prepared by the method described in Miyamoto. K. et al. Plant Physiol. 105; p 769 (1994). The resultant plasmid was digested with restriction enzymes NspI and EcoRI to obtain the DNA fragment containing the gene encoding barley ferrochelatase whose signal sequence had been deleted (hereinafter referred to as the variant barley ferrochelatase). This DNA fragment was inserted between SphI restriction site and EcoRI restriction site of plasmid pTV119N (manufactured by Takara Shuzo Co., Ltd.) to construct plasmid pTVHVF1 (FIG. 12). […]
as §2, with “μg/ml chloramphenicol, 10 μg/ml kanamycin,” for “μg/ml chloramphenicol, 50 μg/ml kanamycin,”, “absorbance of liquid culture” for “absorbance of the liquid culture”

[4] = tested on: E. coli BT3/pACYCSP+pHASYS8 strain; experiment: Growth of E. coli BT3/pACYCSP+pHASYS8 with herbicidal compound; conditions: 1 ppm, 18 hours culture, Table 16

SMILES: C#CCOc1cc(N2C(=O)C3=C(CCCC3)C2=O)c(F)cc1Cl [Structure 8]
- Relative absorbance ([1]; in the dark, 1 ppm): 0.93
- Relative absorbance ([1]; in the dark, 10 ppm): 0.92
- Relative absorbance ([1]; in the light, 1 ppm): 0.89
- Relative absorbance ([1]; in the light, 10 ppm): 0.69
- Relative absorbance ([2]; in the dark, 1 ppm): 0.82
- Relative absorbance ([2]; in the dark, 10 ppm): 0.81
- Relative absorbance ([2]; in the light, 1 ppm): 0.42
- Relative absorbance ([2]; in the light, 10 ppm): 0.23
- Relative absorbance ([3]; in the dark, 1 ppm): 0.96
- Relative absorbance ([3]; in the dark, 10 ppm): 0.94
- Relative absorbance ([3]; in the light, 1 ppm): 0.94
- Relative absorbance ([3]; in the light, 10 ppm): 0.39
- Relative absorbance ([4]; in the dark): 1.0
- Relative absorbance ([4]; in the light): 0.57
